# Columns and labels:
# Type in all cases: cell-based
# [1] = molecular target: T1, human EDG8 (S1PR5) receptor (Homo sapiens, UniProt Q9H228); assay: Aequorin assay, agonist potency, CHO-A21-EDG8#12 cells; conditions: agonist mode, aequorin luminescence; read-out: S1P5 EC50 range #
# T1 construct: carries the transgenes human EDG8 (S1PR5) receptor (Acession number NP_110387.1); expressed in transfected cells; host or cells: CHO-A21-EDG8#12 (CHO clone co-expressing mitochondrial aequorin and chimaeric Gaqi5)
# Summary of the method: (§1)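 CHO cells coexpressing receptor, mitochondrial aequorin and Gαqi5 (S1P3 pool: GNA16) were loaded overnight at RT with 5 μM coelenterazine h in 0.1% fatty-acid-free BSA buffer. Cells were injected onto compound, luminescence recorded 90 s and integrated, normalised to digitonin or 20 μM ATP; sigmoidal fit.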
# [2] = molecular target: T2, human EDG1 (S1PR1) receptor (Homo sapiens, UniProt P21453); assay: Aequorin assay, agonist potency, CHO-A21-Edg1#17 cells; conditions: agonist mode, aequorin luminescence; read-out: S1P1 EC50
# T2 construct: expressed in transfected cells; host or cells: CHO-A21-Edg1#17 (CHO clone co-expressing mitochondrial aequorin and chimaeric Gaqi5)
# Summary of the method: as §1
# S1P4 = molecular target: T3, S1P4 (Homo sapiens, UniProt O95977); assay: Aequorin assay, agonist potency, S1P4; conditions: agonist mode, aequorin luminescence
# T3 sequence (O95977 1-384): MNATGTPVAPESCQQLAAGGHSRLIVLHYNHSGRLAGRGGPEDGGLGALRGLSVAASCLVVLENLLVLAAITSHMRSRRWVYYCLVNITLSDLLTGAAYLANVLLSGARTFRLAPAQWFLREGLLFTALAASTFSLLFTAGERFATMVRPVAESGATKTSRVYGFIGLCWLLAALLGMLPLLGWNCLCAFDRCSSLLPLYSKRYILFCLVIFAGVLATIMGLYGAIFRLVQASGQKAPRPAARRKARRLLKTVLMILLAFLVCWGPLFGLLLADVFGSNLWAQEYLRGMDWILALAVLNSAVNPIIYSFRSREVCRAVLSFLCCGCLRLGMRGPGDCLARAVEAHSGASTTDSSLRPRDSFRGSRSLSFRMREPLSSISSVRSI
# Summary of the method: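 Cells loaded overnight at RT with 5 μM coelenterazine h in DMEM/HAM's F12 with HEPES plus 0.1% fatty acid-free BSA, then injected onto compounds; agonist-induced calcium luminescence recorded for 90 s and integrated. Signal normalised to digitonin (100 μM) or ATP (20 μM) wells, S1P as reference agonist; sigmoidal nonlinear regression.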
# T2 sequence (P21453 whole entry): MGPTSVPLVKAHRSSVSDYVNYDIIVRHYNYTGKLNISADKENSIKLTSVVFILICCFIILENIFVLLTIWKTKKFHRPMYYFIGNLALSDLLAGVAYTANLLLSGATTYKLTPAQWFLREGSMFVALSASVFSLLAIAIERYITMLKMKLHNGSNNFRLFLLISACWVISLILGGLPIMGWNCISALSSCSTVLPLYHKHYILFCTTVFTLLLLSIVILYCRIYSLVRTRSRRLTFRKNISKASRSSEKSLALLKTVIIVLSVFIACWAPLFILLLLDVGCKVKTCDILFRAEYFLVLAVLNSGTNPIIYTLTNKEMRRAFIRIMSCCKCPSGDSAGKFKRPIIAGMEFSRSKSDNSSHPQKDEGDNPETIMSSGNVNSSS
# T1 sequence (Q9H228 whole entry): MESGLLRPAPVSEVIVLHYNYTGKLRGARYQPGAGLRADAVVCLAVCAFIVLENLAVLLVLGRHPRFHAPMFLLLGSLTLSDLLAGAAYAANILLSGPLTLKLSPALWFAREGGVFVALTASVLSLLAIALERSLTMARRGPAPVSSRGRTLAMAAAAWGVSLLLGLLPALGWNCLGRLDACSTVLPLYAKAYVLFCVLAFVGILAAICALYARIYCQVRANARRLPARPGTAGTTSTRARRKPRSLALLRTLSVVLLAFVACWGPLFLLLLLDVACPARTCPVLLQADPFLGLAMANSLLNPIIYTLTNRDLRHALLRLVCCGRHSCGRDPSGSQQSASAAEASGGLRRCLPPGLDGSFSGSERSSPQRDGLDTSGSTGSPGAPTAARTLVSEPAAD
EC50 [1] [nM],EC50 [2] [nM],EC50 (S1P4) [nM],SMILES
≤ 10,< 1000,> 1000,"CC(C)Oc1ccc(C#Cc2ccc3c(c2)CC2(C3)CN(CC3(C(=O)O)CC3)C2)cc1 [Example 113, 1-((5′-((4-isopropoxyphenyl)ethynyl)-1′,3′-dihydrospiro[azetidine-3,2′-inden]-1-yl)methyl)cyclopropanecarboxylic acid]"
100 to 1000,> 1000,> 1000,"CC(C)Oc1ccc(C#Cc2ccc3c(c2)CC2(C3)CN(CC3(C(=O)O)CC3)C2)cn1 [Example 114, 1-((5′-((6-isopropoxypyridin-3-yl)ethynyl)-1′,3′-dihydrospiro[azetidine-3,2′-inden]-1-yl)methyl)cyclopropanecarboxylic acid]"
10 to 100,> 1000,> 1000,"O=C(O)C1(CN2CC3(Cc4ccc(C#Cc5ccc(OC6CCCC6)nc5)cc4C3)C2)CC1 [Example 116, 1-((5′-((6-(cyclopentyloxy)pyridin-3-yl)ethynyl)-1′,3′-dihydrospiro[azetidine-3,2′-inden]-1-yl)methyl)cyclopropanecarboxylic acid]"
≤ 10,< 1000,> 1000,"CC(Oc1ccc(C#Cc2ccc3c(c2)CC2(C3)CN(CC3(C(=O)O)CC3)C2)cn1)C(F)(F)F (stereo not drawn) [Example 117, 1-((5′-((6-((1,1,1-trifluoropropan-2-yl)oxy)pyridin-3-yl)ethynyl)-1′,3′-dihydrospiro[azetidine-3,2′-inden]-1-yl)methyl)cyclopropanecarboxylic acid]"
1000 to 10000,> 1000,< 1000,"COc1ccc(C#Cc2ccc3c(c2)CC2(C3)CN(CC3(C(=O)O)CC3)C2)c(C)c1 [Example 118, 1-((5′-((4-methoxy-2-methylphenyl)ethynyl)-1′,3′-dihydrospiro[azetidine-3,2′-inden]-1-yl)methyl)cyclopropanecarboxylic acid]"
1000 to 10000,> 1000,> 1000,"CC(C)Oc1ccc(CCc2ccc3c(c2)CC2(C3)CN(CC3(C(=O)O)CC3)C2)cn1 [Example 119, 1-((5′-(2-(6-isopropoxypyridin-3-yl)ethyl)-1′,3′-dihydrospiro[azetidine-3,2′-inden]-1-yl)methyl)cyclopropanecarboxylic acid]"
1000 to 10000,> 1000,< 1000,"CCOc1c(F)cc(COc2ccc3c(c2)CC2(C3)CN(CC3(C(=O)O)CC3)C2)cc1F [Example 120, 1-((5′-((4-ethoxy-3,5-difluorobenzyl)oxy)-1′,3′-dihydrospiro[azetidine-3,2′-inden]-1-yl)methyl)cyclopropanecarboxylic acid]"
1000 to 10000,> 1000,> 1000,"COc1ccc(COc2ccc3c(c2)CC2(C3)CN(CC3(C(=O)O)CC3)C2)c(C)n1 [Example 121, 1-((5′-((6-methoxy-2-methylpyridin-3-yl)methoxy)-1′,3′-dihydrospiro[azetidine-3,2′-inden]-1-yl)methyl)cyclopropanecarboxylic acid]"
1000 to 10000,> 1000,< 1000,"CCOc1cc(F)c(COc2ccc3c(c2)CC2(C3)CN(CC3(C(=O)O)CC3)C2)c(F)c1 [Example 122, 1-((5′-((4-ethoxy-2,6-difluorobenzyl)oxy)-1′,3′-dihydrospiro[azetidine-3,2′-inden]-1-yl)methyl)cyclopropanecarboxylic acid]"
1000 to 10000,> 1000,< 1000,"CCOc1ccc(COc2ccc3c(c2)CC2(C3)CN(CC3(C(=O)O)CC3)C2)c(F)c1F [Example 123, 1-((5′-((4-ethoxy-2,3-difluorobenzyl)oxy)-1′,3′-dihydrospiro[azetidine-3,2′-inden]-1-yl)methyl)cyclopropanecarboxylic acid]"
1000 to 10000,> 1000,< 1000,"O=C(O)C1(CN2CC3(Cc4ccc(OCc5cc(Cl)cnc5Cl)cc4C3)C2)CC1 [Example 124, 1-((5′-((2,5-dichloropyridin-3-yl)methoxy)-1′,3′-dihydrospiro[azetidine-3,2′-inden]-1-yl)methyl)cyclopropanecarboxylic acid]"

# From patent US20200055817A1 (AbbVie Deutschland GmbH & Co. KG, priority 2016, published 2020)
